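Here, GI50 denotes the concentration required for 50% inhibition of growth. TGI: total growth inhibition.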
How the values were obtained:
Assay in all cases: NCI-60 cell line screen, 384-well format
[1] = system: 786-0 renal
[2] = system: A498 renal
[3] = system: A549 NSCLC
[4] = system: ACHN renal
[5] = system: BT-549 breast
[6] = system: CAKI-1 renal
[7] = system: CCRF-CEM leukemia
[8] = system: COLO 205 colon
[9] = system: DU-145 prostate
[10] = system: HCC-2998 colon
[11] = system: HCT-116 colon
[12] = system: HCT-15 colon
[13] = system: HL-60(TB) leukemia
[14] = system: HOP-62 NSCLC
[15] = system: HOP-92 NSCLC
[16] = system: HT29 colon
[17] = system: IGROV1 ovarian
[18] = system: K-562 leukemia
[19] = system: KM12 colon
[20] = system: LOX IMVI melanoma
[21] = system: M14 melanoma
[22] = system: MALME-3M melanoma
[23] = system: MCF7 breast
[24] = system: MDA-MB-231 breast
[25] = system: MDA-MB-435 melanoma
[26] = system: MDA-MB-468 breast
[27] = system: MOLT-4 leukemia
[28] = system: NCI-H226 lung
[29] = system: NCI-H23 lung
[30] = system: NCI-H322M lung
[31] = system: NCI-H460 NSCLC
[32] = system: NCI-H522 lung
[33] = system: NCI/ADR-RES ovarian
[34] = system: OVCAR-3 ovarian
[35] = system: OVCAR-4 ovarian
[36] = system: OVCAR-5 ovarian
[37] = system: OVCAR-8 ovarian
[38] = system: PC-3 prostate
[39] = system: RPMI-8226 leukemia
[40] = system: RXF 393 renal
[41] = system: SF-268 CNS
[42] = system: SF-295 CNS
[43] = system: SF-539 CNS
[44] = system: SK-MEL-2 melanoma
[45] = system: SK-MEL-28 melanoma
[46] = system: SK-MEL-5 melanoma
[47] = system: SK-OV-3 ovarian
[48] = system: SN12C renal
[49] = system: SNB-19 CNS
[50] = system: SR leukemia
[51] = system: SW-620 colon
[52] = system: T-47D breast
[53] = system: TK-10 renal
[54] = system: U251 glioblastoma
[55] = system: UACC-257 melanoma
[56] = system: UACC-62 melanoma
[57] = system: UO-31 renal

`C[C@H](Nc1cc(Cl)nc2c1cnn2[C@@H]1O[C@H](COP(=O)(O)CP(=O)(O)O)[C@@H](O)[C@H]1O)c1ccccc1F` was tested, and the GI50 [1] was greater than 100 µM, the TGI [1] was greater than 100 µM and the GI50 [2] was 62.1 µM. The TGI [2] was greater than 100 µM, the GI50 [3] was 80.5 µM and the TGI [3] was greater than 100 µM. For the same molecule, the GI50 [4] was greater than 100 µM, the TGI [4] was greater than 100 µM and the GI50 [5] was 50.6 µM. The TGI [5] was greater than 100 µM, the GI50 [6] was greater than 100 µM and the TGI [6] was greater than 100 µM. For the same molecule, the GI50 [7] was 42.4 µM, the TGI [7] was greater than 100 µM and the GI50 [8] was greater than 100 µM. For the same molecule, the TGI [8] was greater than 100 µM, the GI50 [9] was greater than 100 µM and the TGI [9] was greater than 100 µM. The GI50 [10] was 72.9 µM, the TGI [10] was greater than 100 µM and the GI50 [11] was greater than 100 µM. For the same molecule, the TGI [11] was greater than 100 µM, the GI50 [12] was greater than 100 µM and the TGI [12] was greater than 100 µM. For the same molecule, the GI50 [13] was greater than 100 µM, the TGI [13] was greater than 100 µM and the GI50 [14] was greater than 100 µM. The TGI [14] was greater than 100 µM, the GI50 [15] was greater than 100 µM and the TGI [15] was greater than 100 µM. It also gave a GI50 [16] greater than 100 µM, a TGI [16] greater than 100 µM and a GI50 [17] greater than 100 µM. The TGI [17] was greater than 100 µM, the GI50 [18] was greater than 100 µM and the TGI [18] was greater than 100 µM. It also gave a GI50 [19] greater than 100 µM, a TGI [19] greater than 100 µM and a GI50 [20] greater than 100 µM. For the same molecule, the TGI [20] was greater than 100 µM, the GI50 [21] was greater than 100 µM and the TGI [21] was greater than 100 µM. It also gave a GI50 [22] greater than 100 µM, a TGI [22] greater than 100 µM and a GI50 [23] greater than 100 µM. For the same molecule, the TGI [23] was greater than 100 µM, the GI50 [24] was greater than 100 µM and the TGI [24] was greater than 100 µM. For the same molecule, the GI50 [25] was greater than 100 µM, the TGI [25] was greater than 100 µM and the GI50 [26] was greater than 100 µM. It also gave a TGI [26] greater than 100 µM, a GI50 [27] of 58.8 µM and a TGI [27] greater than 100 µM. The GI50 [28] was 56.6 µM, the TGI [28] was greater than 100 µM and the GI50 [29] was 67.3 µM. For the same molecule, the TGI [29] was greater than 100 µM, the GI50 [30] was greater than 100 µM and the TGI [30] was greater than 100 µM. The GI50 [31] was greater than 100 µM, the TGI [31] was greater than 100 µM and the GI50 [32] was greater than 100 µM. It also gave a TGI [32] greater than 100 µM, a GI50 [33] greater than 100 µM and a TGI [33] greater than 100 µM. The GI50 [34] was greater than 100 µM, the TGI [34] was greater than 100 µM and the GI50 [35] was 50.6 µM. The TGI [35] was greater than 100 µM, the GI50 [36] was greater than 100 µM and the TGI [36] was greater than 100 µM. It also gave a GI50 [37] greater than 100 µM, a TGI [37] greater than 100 µM and a GI50 [38] greater than 100 µM. For the same molecule, the TGI [38] was greater than 100 µM, the GI50 [39] was 8.19 µM and the TGI [39] was 40.9 µM. The GI50 [40] was 28.5 µM, the TGI [40] was greater than 100 µM and the GI50 [41] was greater than 100 µM. The TGI [41] was greater than 100 µM, the GI50 [42] was greater than 100 µM and the TGI [42] was greater than 100 µM. It also gave a GI50 [43] of 49.9 µM, a TGI [43] greater than 100 µM and a GI50 [44] of 99.6 µM. It also gave a TGI [44] greater than 100 µM, a GI50 [45] greater than 100 µM and a TGI [45] greater than 100 µM. For the same molecule, the GI50 [46] was greater than 100 µM, the TGI [46] was greater than 100 µM and the GI50 [47] was 73.8 µM. The TGI [47] was greater than 100 µM, the GI50 [48] was 70.8 µM and the TGI [48] was greater than 100 µM. For the same molecule, the GI50 [49] was greater than 100 µM, the TGI [49] was greater than 100 µM and the GI50 [50] was 47.9 µM. For the same molecule, the TGI [50] was greater than 100 µM, the GI50 [51] was greater than 100 µM and the TGI [51] was greater than 100 µM. For the same molecule, the GI50 [52] was 80.7 µM, the TGI [52] was greater than 100 µM and the GI50 [53] was greater than 100 µM. It also gave a TGI [53] greater than 100 µM, a GI50 [54] greater than 100 µM and a TGI [54] greater than 100 µM. It also gave a GI50 [55] greater than 100 µM, a TGI [55] greater than 100 µM and a GI50 [56] greater than 100 µM. It also gave a TGI [56] greater than 100 µM, a GI50 [57] greater than 100 µM and a TGI [57] greater than 100 µM.

— PubChem BioAssay (NCI)
